According to patent US10294229B2, “Heteroaryl substituted aminopyridine compounds” (BRISTOL-MYERS SQUIBB COMPANY, priority 2015, dated 2019):

These compounds were tested against IRAK4 (Homo sapiens (Human), UniProt Q9NWZ3) (assay: IRAK4 Inhibition Assay). Conditions: ATP 500 μM; IRAK4 0.6 nM.
Assay type: biochemical
Procedure: The assays were performed in U-bottom 384-well plates. The final assay volume was 30 μL prepared from 15 μL additions of enzyme and substrates (fluoresceinated peptide and ATP) and test compounds in assay buffer (20 mM HEPES pH 7.2, 10 mM MgCl2, 0.015% Brij 35 and 4 mM DTT). The reaction was initiated by the combination of IRAK4 with substrates and test compounds. The reaction mixture was incubated at room temperature for 60 min. and terminated by adding 45 μL of 35 mM EDTA to each sample. The reaction mixture was analyzed on the Caliper LABCHIP® 3000 (Caliper, Hopkinton, Mass.) by electrophoretic separation of the fluorescent substrate and phosphorylated product. Inhibition data were calculated by comparison to no enzyme control reactions for 100% inhibition and vehicle-only reactions for 0% inhibition. The final concentrations of reagents in the assays are ATP, 500 μM; FL-IPTSPITTTYFFFKKK peptide 1.5 μM; IRAK4, 0.6 nM; and DMSO, 1.6%.

Sequence of IRAK4 (Q9NWZ3 whole entry, species assumed): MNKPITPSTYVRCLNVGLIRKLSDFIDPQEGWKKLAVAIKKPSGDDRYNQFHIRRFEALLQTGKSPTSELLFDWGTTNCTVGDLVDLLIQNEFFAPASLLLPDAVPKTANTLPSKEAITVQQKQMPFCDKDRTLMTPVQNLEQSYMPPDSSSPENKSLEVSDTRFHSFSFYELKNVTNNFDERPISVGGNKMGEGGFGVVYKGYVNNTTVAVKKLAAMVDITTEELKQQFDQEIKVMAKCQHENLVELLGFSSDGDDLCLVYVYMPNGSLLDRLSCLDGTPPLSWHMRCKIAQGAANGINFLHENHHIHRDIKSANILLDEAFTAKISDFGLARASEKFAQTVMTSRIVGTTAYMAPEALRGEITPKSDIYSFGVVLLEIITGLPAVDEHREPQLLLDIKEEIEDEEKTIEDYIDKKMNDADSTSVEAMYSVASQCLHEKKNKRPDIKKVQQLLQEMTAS

IC50 [nM] | Compound
3 | CCCn1cc(-c2cnc(-n3ncc4cc(C#N)c(N)nc43)cc2NC2CCOCC2)nn1 [Example 51, 6-amino-1-(5-(1-propyl-1H-1,2,3-triazol-4-yl)-4-((tetrahydro-2H-pyran-4-yl)amino)pyridin-2-yl)-1H-pyrazolo[3,4-b]pyridine-5-carbonitrile]
8 | CCCn1cc(-c2cnc(-n3cnc4cc(C#N)cnc43)cc2NCC)nn1 [Example 55, 3-(4-(ethylamino)-5-(1-propyl-1H-1,2,3-triazol-4-yl)pyridin-2-yl)-3H-imidazo[4,5-b]pyridine-6-carbonitrile]
93 | CCCn1cc(-c2cnc(-n3ncc4cc(C#N)cnc43)cc2Nc2cnn(CC)c2)nn1 [Example 58, 1-(4-((1-ethyl-1H-pyrazol-4-yl)amino)-5-(1-propyl-1H-1,2,3-triazol-4-yl)pyridin-2-yl)-1H-pyrazolo [3,4-b]pyridine-5-carbonitrile]
7 | CCCn1cc(-c2cnc(-n3cnc4cc(C#N)cnc43)cc2Nc2cnn(CC(F)F)c2)nn1 [Example 61, 3-(4-((1-(2,2-difluoroethyl)-1H-pyrazol-4-yl)amino)-5-(1-propyl-1H-1,2,3-triazol-4-yl)pyridin-2-yl)-3H-imidazo[4,5-b]pyridine-6-carbonitrile]
32 | CC(C)Nc1cc(-n2cnc3cc(C#N)cnc32)ncc1-c1cn(CC(C)(C)O)nn1 [Example 67, 3-(5-(1-(2-hydroxy-2-methylpropyl)-1H-1,2,3-triazol-4-yl)-4-(isopropylamino)pyridin-2-yl)-3H-imidazo[4,5-b]pyridine-6-carbonitrile]
14 | CC(C)Nc1cc(-n2cnc3cc(C#N)cnc32)ncc1-c1cn(C[C@@H](C)O)nn1 [Example 68, (R)-3-(5-(1-(2-hydroxypropyl)-1H-1,2,3-triazol-4-yl)-4-(isopropylamino)pyridin-2-yl)-3H-imidazo[4,5-b]pyridine-6-carbonitrile]
40 | CCNc1cc(-n2ncc3cc(C#N)cnc32)ncc1-c1cn(C[C@H](C)O)nn1 [Example 71, (S)-1-(4-(ethylamino)-5-(1-(2-hydroxypropyl)-1H-1,2,3-triazol-4-yl)pyridin-2-yl)-1H-pyrazolo[3,4-b]pyridine-5-carbonitrile]
52 | CCNc1cc(-n2cnc3cc(C#N)cnc32)ncc1-c1cn(C[C@H](C)O)nn1 [Example 72, (S)-3-(4-(ethylamino)-5-(1-(2-hydroxypropyl)-1H-1,2,3-triazol-4-yl)pyridin-2-yl)-3H-imidazo [4,5-b]pyridine-6-carbonitrile]
2 | CCOC(=O)Cn1cc(-c2cnc(-n3ncc4cc(C#N)cnc43)cc2NC(C)C)nn1 [Example 98, Ethyl 2-(4-(6-(5-cyano-1H-pyrazolo[3,4-b]pyridin-1-yl)-4-(isopropylamino)pyridin-3-yl)-1H-1,2,3-triazol-1-yl)acetate]
235 | CC(C)Nc1cc(-n2ncc3cc(C#N)cnc32)ncc1-c1cn(C2CN(C(c3ccccc3)c3ccccc3)C2)nn1 [Example 100, 1-(5-(1-(1-benzhydrylazetidin-3-yl)-1H-1,2,3-triazol-4-yl)-4-(isopropylamino)pyridin-2-yl)-1H-pyrazolo[3,4-b]pyridine-5-carbonitrile]
5 | CC(C)Nc1cc(-n2ncc3cc(C#N)cnc32)ncc1-c1cn(CC(=O)N2CCOCC2)nn1 [Example 101, 1-(4-(isopropylamino)-5-(1-(2-morpholino-2-oxoethyl)-1H-1,2,3-triazol-4-yl)pyridin-2-yl)-1H-pyrazolo[3,4-b]pyridine-5-carbonitrile]
172 | CC(C)Nc1cc(-n2ncc3cc(C#N)cnc32)ncc1-c1cn(-c2cccc(O)c2)nn1 [Example 103, 1-(5-(1-(3-hydroxyphenyl)-1H-1,2,3-triazol-4-yl)-4-(isopropylamino)pyridin-2-yl)-1H-pyrazolo[3,4-b]pyridine-5-carbonitrile]
399 | CC(C)Nc1cc(-n2ncc3cc(C#N)cnc32)ncc1-c1cn(-c2ccc(F)c(C#N)c2)nn1 [Example 104, 1-(5-(1-(3-cyano-4-fluorophenyl)-1H-1,2,3-triazol-4-yl)-4-(isopropylamino)pyridin-2-yl)-1H-pyrazolo[3,4-b]pyridine-5-carbonitrile]
55 | CC(C)Nc1cc(-n2ncc3cc(C#N)cnc32)ncc1-c1cn([C@@H]2O[C@H](CO)[C@H](O)[C@H](O)[C@H]2O)nn1 [Example 105, 1-(4-(isopropylamino)-5-(1-((2R,3R,4S,5R,6R)-3,4,5-trihydroxy-6-(hydroxymethyl)tetrahydro-2H-pyran-2-yl)-1H-1,2,3-triazol-4-yl)pyridin-2-yl)-1H-pyrazolo[3,4-b]pyridine-5-carbonitrile]
321 | Cc1nc2cc(Cn3cc(-c4cnc(-n5ncc6cc(C#N)cnc65)cc4NC(C)C)nn3)ccc2s1 [Example 106, 1-(4-(isopropylamino)-5-(1-((2-methylbenzo[d]thiazol-5-yl)methyl)-1H-1,2,3-triazol-4-yl)pyridin-2-yl)-1H-pyrazolo[3,4-b]pyridine-5-carbonitrile]
15 | CC(C)Nc1cc(-n2ncc3cc(C#N)cnc32)ncc1-c1cn(Cc2ccccc2)nn1 [Example 107, 1-(5-(1-benzyl-1H-1,2,3-triazol-4-yl)-4-(isopropylamino)pyridin-2-yl)-1H-pyrazolo[3,4-b]pyridine-5-carbonitrile]
35 | CC(C)Nc1cc(-n2ncc3cc(C#N)cnc32)ncc1-c1cn(Cc2nc3ccccc3[nH]2)nn1 [Example 108, 1-(5-(1-((1H-benzo[d]imidazol-2-yl)methyl)-1H-1,2,3-triazol-4-yl)-4-(isopropylamino)pyridin-2-yl)-1H-pyrazolo[3,4-b]pyridine-5-carbonitrile]
217 | CC(C)Nc1cc(-n2ncc3cc(C#N)cnc32)ncc1-c1cn(-c2ccc(F)cc2)nn1 [Example 109, 1-(5-(1-(4-fluorophenyl)-1H-1,2,3-triazol-4-yl)-4-(isopropylamino)pyridin-2-yl)-1H-pyrazolo[3,4-b]pyridine-5-carbonitrile]
75 | COc1ccc(Cn2cc(-c3cnc(-n4ncc5cc(C#N)cnc54)cc3NC(C)C)nn2)cc1 [Example 110, 1-(4-(isopropylamino)-5-(1-(4-methoxybenzyl)-1H-1,2,3-triazol-4-yl)pyridin-2-yl)-1H-pyrazolo[3,4-b]pyridine-5-carbonitrile]
13 | CC(C)Nc1cc(-n2ncc3cc(C#N)cnc32)ncc1-c1cn(-c2cccnc2C#N)nn1 [Example 111, 1-(5-(1-(2-cyanopyridin-3-yl)-1H-1,2,3-triazol-4-yl)-4-(isopropylamino)pyridin-2-yl)-1H-pyrazolo[3,4-b]pyridine-5-carbonitrile]
76 | CC(C)Nc1cc(-n2ncc3cc(C#N)cnc32)ncc1-c1cn(Cc2ccc(F)cc2)nn1 [Example 112, 1-(5-(1-(4-fluorobenzyl)-1H-1,2,3-triazol-4-yl)-4-(isopropylamino)pyridin-2-yl)-1H-pyrazolo[3,4-b]pyridine-5-carbonitrile]
33 | CC(C)Nc1cc(-n2ncc3cc(C#N)cnc32)ncc1-c1cn(-c2ccccc2)nn1 [Example 115, 1-(4-(isopropylamino)-5-(1-phenyl-1H-1,2,3-triazol-4-yl)pyridin-2-yl)-1H-pyrazolo[3,4-b]pyridine-5-carbonitrile]
51 | CC(C)Nc1cc(-n2ncc3cc(C#N)cnc32)ncc1-c1cn(CC2(O)CCN(C(=O)OC(C)(C)C)CC2)nn1 [Example 132, tert-butyl 4-((4-(6-(5-cyano-1H-pyrazolo[3,4-b]pyridin-1-yl)-4-(isopropylamino)pyridin-3-yl)-1H-1,2,3-triazol-1-yl)methyl)-4-hydroxypiperidine-1-carboxylate]
27 | COc1ccc(OCC(O)Cn2cc(-c3cnc(-n4ncc5cc(C#N)cnc54)cc3NC(C)C)nn2)cc1 (centres unmarked) [Example 136, 1-(5-(1-(2-hydroxy-3-(4-methoxyphenoxy)propyl)-1H-1,2,3-triazol-4-yl)-4-(isopropylamino)pyridin-2-yl)-1H-pyrazolo[3,4-b]pyridine-5-carbonitrile]
25 | CC(C)Nc1cc(-n2ncc3cc(C#N)cnc32)ncc1-c1cn(C2CNC2)nn1 [Example 138, 1-(5-(1-(azetidin-3-yl)-1H-1,2,3-triazol-4-yl)-4-(isopropylamino)pyridin-2-yl)-1H-pyrazolo[3,4-b]pyridine-5-carbonitrile]
6 | CC(=O)N1CC(n2cc(-c3cnc(-n4ncc5cc(Cl)cnc54)cc3NC(C)C)nn2)C1 [Example 155, 1-(3-(4-(6-(5-chloro-1H-pyrazolo[3,4-b]pyridin-1-yl)-4-(isopropylamino)pyridin-3-yl)-1H-1,2,3-triazol-1-yl)azetidin-1-yl)ethanone]
25 | CC(C)Nc1cc(-n2ncc3cc(Cl)cnc32)ncc1-c1cn(C)nn1 [Example 165, 2-(5-chloro-1H-pyrazolo[3,4-b]pyridin-1-yl)-N-isopropyl-5-(1-methyl-1H-1,2,3-triazol-4-yl)pyridin-4-amine]
24 | CC(C)Nc1cc(-n2ncc3cc(C#N)cnc32)ncc1-c1cn(C[C@@H](N)Cc2ccccc2)nn1 [Example 168, (S)-1-(5-(1-(2-amino-3-phenylpropyl)-1H-1,2,3-triazol-4-yl)-4-(isopropylamino)pyridin-2-yl)-1H-pyrazolo[3,4-b]pyridine-5-carbonitrile]
26 | CC(C)Nc1cc(-n2ncc3cc(C#N)cnc32)ncc1-c1cn(-c2ccccc2C#N)nn1 [Example 173, 1-(5-(1-(2-cyanophenyl)-1H-1,2,3-triazol-4-yl)-4-(isopropylamino)pyridin-2-yl)-1H-pyrazolo [3,4-b]pyridine-5-carbonitrile]
